Reference: PMC7248782, “Synergistic Anti Leukemia Effect of a Novel Hsp90 and a Pan Cyclin Dependent Kinase Inhibitors” (Molecules, 2020)

Target: T1, Hsp90α (Homo sapiens, UniProt P07900)
T1 construct: gene HSP90AA1; recombinant human Hsp90α (SPP-776)
Test: SPR (Biacore […], immobilized Hsp90α)
Type: binding

- Kd: 51 ± 2.9 nM
SMILES: NS(=O)(=O)c1ccc(CCn2c(=S)[nH]c3ccccc3c2=O)cc1 [compound 1, 4-(2-(4-Oxo-2-thioxo-1,4-dihydroquinazolin-3(2H)-yl)ethyl)benzene sulfonamide]
